# Source: patent publication US20090209536A1, “AMINOQUINAZOLINE CANNABINOID RECEPTOR MODULATORS FOR TREATMENT OF DISEASE” (KALYPSYS, INC., priority 2007, published 2009)
# Read-outs that look alike come from different tables or passages of the source.
# Experiments:
# [1] = target: T1, human cannabinoid receptor type 1 (Homo sapiens, UniProt P21554); test: Human CB1 Radioligand Binding Assay (basis of selectivity, CB2 vs. CB1); settings: CB1: HEK 293 EBNA cells expressing human CB1; CB2: CHO CB2 membranes
# T1 construct: purchased Perkin Elmer RBHCB1M; host or cells: HEK 293 EBNA cells
# T1 sequence (P21554 whole entry): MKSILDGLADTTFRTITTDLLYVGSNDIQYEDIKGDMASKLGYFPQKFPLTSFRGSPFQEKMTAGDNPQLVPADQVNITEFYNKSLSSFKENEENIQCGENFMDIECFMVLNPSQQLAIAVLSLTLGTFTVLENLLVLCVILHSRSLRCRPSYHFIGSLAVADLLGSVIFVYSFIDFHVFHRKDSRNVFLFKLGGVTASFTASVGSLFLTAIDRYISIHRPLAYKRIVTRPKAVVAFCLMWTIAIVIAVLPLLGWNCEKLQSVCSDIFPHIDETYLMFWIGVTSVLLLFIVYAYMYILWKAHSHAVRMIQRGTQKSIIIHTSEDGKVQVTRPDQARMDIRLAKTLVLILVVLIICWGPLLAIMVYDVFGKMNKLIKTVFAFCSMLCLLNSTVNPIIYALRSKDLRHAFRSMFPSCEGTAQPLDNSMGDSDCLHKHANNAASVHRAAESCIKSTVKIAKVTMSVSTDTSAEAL
# Experimental: 2. Human CB1 Radioligand Binding Assay
# The incubation buffer was composed of 50 mM Tris-HCl pH 7.4, 2.5 mM EDTA, 5 mM MgCl2, 5.0 mg/ml fatty acid free BSA and the wash buffer was composed of 50 mM Tris-HCl pH 7.4, 2.5 mM EDTA, 5 mM MgCl2, 0.5 mg/ml fatty acid free BSA.
# [2] = target: T2, human cannabinoid receptor type 2 (Homo sapiens, UniProt P34972); test: Human CB2 Radioligand Binding Assay; settings: membranes from stably transfected CHO CB2 cells
# T2 construct: expressed in transfected cells; membrane preparation
# T2 sequence (P34972 whole entry): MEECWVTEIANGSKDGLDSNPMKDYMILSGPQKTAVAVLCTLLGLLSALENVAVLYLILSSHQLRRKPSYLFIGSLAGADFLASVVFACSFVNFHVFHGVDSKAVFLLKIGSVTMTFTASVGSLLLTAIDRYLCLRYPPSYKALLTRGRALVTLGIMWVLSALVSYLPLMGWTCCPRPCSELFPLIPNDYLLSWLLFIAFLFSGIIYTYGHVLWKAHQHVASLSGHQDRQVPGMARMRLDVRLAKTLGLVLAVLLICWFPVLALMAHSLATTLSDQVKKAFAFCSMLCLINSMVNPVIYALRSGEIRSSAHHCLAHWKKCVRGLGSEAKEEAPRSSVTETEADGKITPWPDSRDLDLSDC
# Experimental: 1. Human CB2 Radioligand Binding Assay
# This receptor binding filtration assay measures the receptor-ligand interactions of compounds by measuring ability to compete with a radiolabeled control ligand. Reactions were performed in 96 deep-well plate (Costar 3961) with a final volume of 600 ul. Compounds were added to each well either in single point (10 uM final) or dose-response. Compounds were delivered in DMSO or further diluted in incubation buffer to a final assay DMSO concentration of 1%. Incubation buffer (50 mM Tris-HCl pH 7.4, 2.5 mM EGTA, 5 mM MgCl2, 5.0 mg/ml fatty acid free BSA) was added to each well. Following buffer addition, [^3H] CP-55,940 was added. Tritiated CP-55,940 (Perkin Elmer) was used at the Kd determined from prior saturation binding experiments conducted on each lot of membranes. Membrane preparations from stably transfected CHO CB2 cells were added and the reaction was incubated for 90 minutes at 30° C. Unifilter GF/C filtration plates (Perkin Elmer) were pre-wet with 0.05% polyethylenimine. Samples were transferred to Unifilter plates and separation of unbound radioligand was achieved using a vacuum manifold (Millipore). Following thorough washing with 5 ml/well ice-cold wash buffer (50 mM Tris-HCl pH 7.4, 2.5 mM EGTA, 5 mM MgCl2, 0.5 mg/ml fatty acid free BSA), filterplates were dried completely. Betaplate Scint Scintillation cocktail (25 ul, Perkin Elmer) was applied and plates were read using Microbeta Trilux (Wallac). Data analysis was performed in Spotfire. Activity of the positive control (100 nM CP-55,940) was set as 100% efficacy.
# Stable recombinant Human CB2-CHO cell membranes were prepared as follows: Chinese Hamster Ovarian (CHO) cells stably expressing human cannabinoid receptor type 2 were grown to 90% confluence in 15×100 mm culture dishes under puromycin selection (5 ug/ml) Cells were harvested from culture flasks using a cell scraper, were washed once with cold phosphate-buffered saline (calcium and magnesium free) and pelleted by centrifugation at 400 g for 5 min at 4° C. Cell pellet was washed once with cold phosphate-buffered saline and centrifuged again at 400×g for 5 min at 4° C. The pellet was suspended in ice-cold lysis buffer (10 mM Tris-HCl, 0.1 mM EDTA, containing […], pH 7.5) and homogenized in a chilled 7 ml glass dounce homogenizer using 50 strokes. The homogenate was centrifuged at 400 g for 15 min at 4° C. The cloudy supernatant was collected and centrifuged at 41000 g for 30 min at 4° C. The resulting pellet was washed with ice-cold sucrose-free lysis buffer and centrifuged again at 41000 g for 30 min at 4° C. The membrane pellet was suspended in sucrose-free storage buffer (10 mm Tris-HCl, 0.1 mM EDTA, pH 7.5) to a concentration of 2-3 mg protein/ml. Aliquots were flash frozen in liquid nitrogen and stored at −80° C. Concentration was determined using Dc protein assay kit (Bio-Rad).
# [3] = competition with [3H] CP-55,940, read-out: CB2 Ligand Binding Asssay EC50
SMILES,"Selectivity, CB2 vs. CB1 [1]","EC50 [2, 3]","EC50 ([2]; CB2 Ligand Binding Asssay EC50, competition with [3H] CP-55,940)"
"CC(C)(C)c1ccc(Nc2nc(-c3ccc(F)c(F)c3)nc3ccccc23)cc1 [Example 20, N-(4-tert-Butylphenyl)-2-(3,4-difluorophenyl)quinazolin-4-amine]",+ (+ indicates > 10−fold),< 1000 nM,–
"CN(c1ccc(C(C)(C)C)cc1)c1nc(-c2ccc(F)c(F)c2)nc2ccccc12 [Example 21, N-(4-tert-Butylphenyl)-2-(3,4-difluorophenyl)-N-methylquinazolin-4-amine]",− (− indicates ≦ 10−fold),> 1000 nM,–
"Fc1ccc(-c2nc(N3CCCC3)c3ccccc3n2)c(F)c1 [Example 22, 2-(2,4-Difluorophenyl)-4-(pyrrolidin-1-yl)quinazoline]",− (− indicates ≦ 10−fold),< 1000 nM,–
"Fc1ccc(-c2nc(N3CCCCC3)c3ccccc3n2)c(F)c1 [Example 23, 2-(2,4-Difluorophenyl)-4-(piperidin-1-yl)quinazoline]",− (− indicates ≦ 10−fold),> 1000 nM,–
"CC(=O)N1CCN(c2nc(-c3ccc(F)cc3F)nc3ccccc23)CC1 [Example 24, 1-(4-(2-(2,4-Difluorophenyl)quinazolin-4-yl)piperazin-1-yl)ethanone]",− (− indicates ≦ 10−fold),< 1000 nM,–
"Fc1ccc(-c2nc(N3CCOCC3)c3ccccc3n2)c(F)c1 [Example 25, 4-(2-(2,4-Difluorophenyl)quinazolin-4-yl)morpholine]",− (− indicates ≦ 10−fold),> 1000 nM,–
"CN(Cc1ccccc1)c1nc(-c2ccc(F)cc2F)nc2ccccc12 [Example 26, Benzyl[2-(2,4-difluorophenyl)quinazolin-4-yl]methylamine]",− (− indicates ≦ 10−fold),> 1000 nM,–
"CN1CCN(c2nc(-c3ccc(F)cc3F)nc3ccccc23)CC1 [Example 27, 2-(2,4-Difluorophenyl)-4-(4-methylpiperazin-1-yl)quinazoline]",− (− indicates ≦ 10−fold),< 1000 nM,–
"Clc1ccc(-c2nc(N3CCCC3)c3ccccc3n2)c(Cl)c1 [Example 28, 2-(2,4-Dichlorophenyl)-4-pyrrolidin-1-ylquinazoline]",+ (+ indicates > 10−fold),> 1000 nM,–
"Clc1ccc(-c2nc(N3CCCCC3)c3ccccc3n2)c(Cl)c1 [Example 29, 2-(2,4-Dichlorophenyl)-4-piperidin-1-ylquinazoline]",+ (+ indicates > 10−fold),< 1000 nM,–
"Clc1ccc(-c2nc(NCC3CC3)c3ccccc3n2)c(Cl)c1 [Example 30, Cyclopropylmethyl[2-(2,4-dichlorophenyl)quinazolin-4-yl]amine]",+ (+ indicates > 10−fold),–,> 1000 nM
"Clc1ccc(-c2nc(NCc3ccccc3)c3ccccc3n2)c(Cl)c1 [Example 31, Benzyl[2-(2,4-dichlorophenyl)quinazolin-4-yl]amine]",− (− indicates ≦ 10−fold),> 1000 nM,–
"CN(Cc1ccccc1)c1nc(-c2ccc(Cl)cc2Cl)nc2ccccc12 [Example 32, N-Benzyl-2-(2,4-dichlorophenyl)-N-methylquinazolin-4-amine]",− (− indicates ≦ 10−fold),> 1000 nM,–
"CN1CCN(c2nc(C3CCCCC3)nc3ccccc23)CC1 [Example 33, 2-Cyclohexyl-4-(4-methylpiperazin-1-yl)quinazoline]",− (− indicates ≦ 10−fold),< 1000 nM,–
"c1ccc2c(N3CCCCC3)nc(C3CCCCC3)nc2c1 [Example 34, 2-Cyclohexyl-4-(piperidin-1-yl)quinazolines]",− (− indicates ≦ 10−fold),< 1000 nM,–
"c1ccc2c(N3CCOCC3)nc(C3CCCCC3)nc2c1 [Example 35, 4-(2-Cyclohexylquinazolin-4-yl)morpholine]",− (− indicates ≦ 10−fold),< 1000 nM,–

SMILES,"Selectivity, CB2 vs. CB1 [1]","EC50 [2, 3]","EC50 ([2]; CB2 Ligand Binding Asssay EC50, competition with [3H] CP-55,940)"
"c1ccc2c(N3CCCC3)nc(C3CCCCC3)nc2c1 [Example 36, 2-Cyclohexyl-4-(pyrrolidin-1-yl)quinazolines]",+ (+ indicates > 10−fold),< 1000 nM,–
"Clc1ccccc1Nc1nc(C2CCCCC2)nc2ccccc12 [Example 37, N-(2-Chlorophenyl)-2-cyclohexylquinazolin-4-amine]",− (− indicates ≦ 10−fold),> 1000 nM,–
"c1ccc(CNc2nc(C3CCCCC3)nc3ccccc23)cc1 [Example 38, N-Benzyl-2-cyclohexylquinazolin-4-amine]",− (− indicates ≦ 10−fold),> 1000 nM,–
"CCCc1nc(N2CCCC2)c2ccccc2n1 [Example 40, 2-Propyl-4-(pyrrolidin-1-yl)quinazoline]",− (− indicates ≦ 10−fold),> 1000 nM,–
"CCCc1nc(N2CCN(C)CC2)c2ccccc2n1 [Example 41, 4-(4-Methylpiperazin-1-yl)-2-propylquinazoline]",− (− indicates ≦ 10−fold),> 1000 nM,–
"CN1CCN(c2nc(-c3ccc(C(F)(F)F)cc3)nc3ccccc23)CC1 [Example 42, 4-(4-Methylpiperazin-1-yl)-2-(4-(trifluoromethyl)phenyl)quinazoline]",+ (+ indicates > 10−fold),< 1000 nM,–
"FC(F)(F)c1ccc(-c2nc(N3CCOCC3)c3ccccc3n2)cc1 [Example 43, 4-(2-(4-(Trifluoromethyl)phenyl)quinazolin-4-yl)morpholine]",+ (+ indicates > 10−fold),< 1000 nM,–
"FC(F)(F)c1ccc(-c2nc(N3CCCCC3)c3ccccc3n2)cc1 [Example 44, 4-(Piperidin-1-yl)-2-(4-(trifluoromethyl)phenyl)quinazoline]",− (− indicates ≦ 10−fold),< 1000 nM,–
"FC(F)(F)c1ccc(-c2nc(N3CCCC3)c3ccccc3n2)cc1 [Example 45, 4-(Pyrrolidin-1-yl)-2-(4-(trifluoromethyl)phenyl)quinazoline]",+ (+ indicates > 10−fold),< 1000 nM,–
"CC(C)(C)c1ccc(Nc2nc(-c3ccc(C(F)(F)F)cc3)nc3ccccc23)cc1 [Example 46, (4-tert-Butylphenyl)-[2-(4-trifluoromethylphenyl)quinazolin-4-yl]amine]",+ (+ indicates > 10−fold),< 1000 nM,–
"c1ccc(-c2nc(N3CCCC3)c3ccccc3n2)cc1 [Example 48, 2-Phenyl-4-(pyrrolidin-1-yl)quinazoline]",− (− indicates ≦ 10−fold),> 1000 nM,–
"Clc1ccccc1Nc1nc(-c2ccccc2)nc2ccccc12 [Example 49, N-(2-Chlorophenyl)-2-phenylquinazolin-4-amine]",− (− indicates ≦ 10−fold),> 1000 nM,–
"c1ccc(-c2nc(NCC3CC3)c3ccccc3n2)cc1 [Example 50, N-(Cyclopropylmethyl)-2-phenylquinazolin-4-amine]",− (− indicates ≦ 10−fold),> 1000 nM,–
"CC(C)CNc1nc(-c2ccccc2)nc2ccccc12 [Example 51, N-iso-Butyl-2-phenylquinazolin-4-amine]",− (− indicates ≦ 10−fold),> 1000 nM,–
"c1ccc(-c2nc(N3CCCCC3)c3ccccc3n2)cc1 [Example 52, 2-Phenyl-4-(piperidin-1-yl)quinazoline]",− (− indicates ≦ 10−fold),> 1000 nM,–
